Reference: US20240197938A1, “ANTIMICROBIAL COMPOUNDS BASED ON GLUCOHEPTONIC ACIDS AND THEIR SALTS” (HARCROS CHEMICALS, INC., priority 2021, published 2024)

Key:
Assay type in all cases: cell-based
Candida albicans = test: ASTM E2315-16 Time-Kill Procedure; settings: for Log Reduction (LR): 5.0 % w/w; for Log Reduction: 30 seconds; for log reduction: 10 minutes
Method: (§1) Select compounds were tested for antimicrobial activity using ASTM method […]-16 (Standard Guide for Assessment of Antimicrobial Activity using a Time-Kill Procedure). Six microbes were tested: Candida albicans, Staphylococcus aureus, Staphylococcus epidermidis. Escherichia coli, Salmonella abony, and Listeria monocytogenes. Four chlorhexidine salts were tested: chlorhexidine di-α-glucoheptonate (Sample G), chlorhexidine di-β73-glucoheptonate (Sample H), chlorhexidine digluconate (Sample I), and chlorhexidine diacetate (Sample P). Both chlorhexidine diglucoheptonate salts were prepared at a 2:1 molar ratio of glucoheptonic acid to chlorhexidine. Dilutions of each salt were prepared using sterile water (20-30 ppm hardness), to achieve the desired wt. % concentration. Two glucoheptonic acids were evaluated for antimicrobial activity against the same six microbes as Example 13. Sample L was α-glucoheptonic acid. Sample M was β73-glucoheptonic acid. Benzalkonium salts were also tested using the same procedure as set forth in Example 13. The samples were benzalkonium chloride (C12-C16) (Sample C), benzalkonium chloride (C12-C14) (Sample D), benzalkonium chloride in combination with a stoichiometric amount of α-glucoheptonate (Sample F), and benzalkonium chloride in combination with a molar excess of α-glucoheptonate (Sample N). Sample F was prepared by mixing and extensively heating a stoichiometric quantity (1:1) of sodium α-glucoheptonate with benzalkonium chloride, typified by the C12-14 alkyl chain. Sample N was prepared by simply blending benzalkonium chloride, typified by the C12-16 chain, with a molar excess of sodium α-glucoheptonate (1.6:1). Both Samples F and N contain sodium chloride.

Staphylococcus aureus = test: ASTM E2315-16 Time-Kill Procedure; settings: for Log Reduction: 30 seconds; for log reduction: 10 minutes
Method: as §1

[1] = tested on: Staphylococcus epidermidis; test: ASTM E2315-16 Time-Kill Procedure; settings: for Log Reduction: 30 seconds; for log reduction: 10 minutes
Method: as §1

Escherichia coli = test: ASTM E2315-16 Time-Kill Procedure; settings: for Log Reduction: 30 seconds; for log reduction: 10 minutes
Method: as §1, with “concentration.” for “concentration. Two glucoheptonic acids were evaluated for antimicrobial activity against the same six microbes as Example 13. Sample L was α-glucoheptonic acid. Sample M was β73-glucoheptonic acid.”

Listeria monocytogenes = test: ASTM E2315-16 Time-Kill Procedure; settings: for Log Reduction: 30 seconds; for log reduction: 10 minutes
Method: as §1, with “concentration.” for “concentration. Two glucoheptonic acids were evaluated for antimicrobial activity against the same six microbes as Example 13. Sample L was α-glucoheptonic acid. Sample M was β73-glucoheptonic acid.”

Salmonella abony = test: ASTM E2315-16 Time-Kill Procedure; settings: for Log Reduction: 30 seconds; for log reduction: 10 minutes
Method: as §1, with “concentration.” for “concentration. Two glucoheptonic acids were evaluated for antimicrobial activity against the same six microbes as Example 13. Sample L was α-glucoheptonic acid. Sample M was β73-glucoheptonic acid.”

[2] = tested on: all microbes (Candida albicans, Staphylococcus aureus, Staphylococcus epidermidis, Escherichia coli, Salmonella abony, Listeria monocytogenes); test: ASTM E2315-16 Time-Kill Procedure, average across all microbes; settings: for Log Reduction, Average, all microbes: 30 seconds; for average Log Reduction (LR) in microbial population across all microbes / log reduction, Average, all microbes: 10 minutes
Method: Select compounds were tested for antimicrobial activity using ASTM method […]-16 (Standard Guide for Assessment of Antimicrobial Activity using a Time-Kill Procedure). Six microbes were tested: Candida albicans, Staphylococcus aureus, Staphylococcus epidermidis. Escherichia coli, Salmonella abony, and Listeria monocytogenes. Four chlorhexidine salts were tested: chlorhexidine di-α-glucoheptonate (Sample G), chlorhexidine di-β73-glucoheptonate (Sample H), chlorhexidine digluconate (Sample I), and chlorhexidine diacetate (Sample P). Both chlorhexidine diglucoheptonate salts were prepared at a 2:1 molar ratio of glucoheptonic acid to chlorhexidine. Dilutions of each salt were prepared using sterile water (20-30 ppm hardness), to achieve the desired wt. % concentration. Samples G, H, I, and P were also tested at a concentration of 0.60 wt % active and evaluated for the average Log Reduction in microbial population at 10 minutes, across all microbes. A further test was conducted at a concentration of 1.0 wt % active and evaluated for the average Log Reduction in microbial population at 10 minutes, across all microbes. Benzalkonium salts were also tested using the same procedure as set forth in Example 13. The samples were benzalkonium chloride (C12-C16) (Sample C), benzalkonium chloride (C12-C14) (Sample D), benzalkonium chloride in combination with a stoichiometric amount of α-glucoheptonate (Sample F), and benzalkonium chloride in combination with a molar excess of α-glucoheptonate (Sample N). Sample F was prepared by mixing and extensively heating a stoichiometric quantity (1:1) of sodium α-glucoheptonate with benzalkonium chloride, typified by the C12-14 alkyl chain. Sample N was prepared by simply blending benzalkonium chloride, typified by the C12-16 chain, with a molar excess of sodium α-glucoheptonate (1.6:1). Both Samples F and N contain sodium chloride. A further antimicrobial test was conducted to determine the log reduction at 10 minutes. Samples C, D, F, and N are as defined above.

[3] = 2.5 % w/w, contact time 10 minutes
[4] = 5.0 % w/w, contact time 5 minutes
[5] = 5.0 % w/w, contact time 10 minutes

In the case of `O=C(O)[C@H](O)[C@H](O)[C@@H](O)[C@H](O)[C@H](O)CO` [Sample M, β73-glucoheptonic acid], the “Log Reduction (LR)” value (Candida albicans; contact time 5 minutes) is reported as 3.47, the “Log Reduction (LR)” value (Candida albicans; contact time 10 minutes) is reported as 4.00 and the “Log Reduction (LR)” value (Staphylococcus aureus; [3]) is reported as 3.13. The “Log Reduction (LR)” value (Staphylococcus aureus; [4]) was 4.07, the “Log Reduction (LR)” value (Staphylococcus aureus; [5]) was 4.13 and the “Log Reduction (LR)” value ([1]; 1.0 % w/w, contact time 10 minutes) was 3.47. The “Log Reduction (LR)” value ([1]; 2.5 % w/w, contact time 5 minutes) was 3.17, the “Log Reduction (LR)” value [1, 3] was 3.50 and the “Log Reduction (LR)” value [1, 4] was 3.39. The “Log Reduction (LR)” value [1, 5] was 3.47.
In the case of `CC(=O)O.CC(=O)O.NC(=N\CCCCCC/N=C(N)/N=C(\N)Nc1ccc(Cl)cc1)/N=C(\N)Nc1ccc(Cl)cc1` [Sample P, chlorhexidine diacetate], the “Log Reduction” value (Candida albicans; 0.20% (wt. %)) is reported as 2.56, the “Log Reduction” value (Candida albicans; 0.60% (wt. %)) is reported as 3.35 and the “Log Reduction” value (Candida albicans; 1.00% (wt. %)) is reported as 4.48. The “Log Reduction” value (Staphylococcus aureus; 0.20% (wt. %)) was 3.22, the “Log Reduction” value (Staphylococcus aureus; 0.60% (wt. %)) was 4.93 and the “Log Reduction” value (Staphylococcus aureus; 1.00% (wt. %)) was 5.07. The “Log Reduction” value ([1]; 0.20% (wt. %)) was 1.57, the “Log Reduction” value ([1]; 0.60% (wt. %)) was 3.57 and the “Log Reduction” value ([1]; 1.00% (wt. %)) was 3.75. For the same molecule, the “Log Reduction” value (Escherichia coli; 0.20% (wt. %)) was 1.54, the “Log Reduction” value (Escherichia coli; 0.60% (wt. %)) was 1.59 and the “Log Reduction” value (Escherichia coli; 1.00% (wt. %)) was 3.07. The “Log Reduction” value (Listeria monocytogenes; 0.20% (wt. %)) was 1.29, the “Log Reduction” value (Listeria monocytogenes; 0.60% (wt. %)) was 1.36 and the “Log Reduction” value (Listeria monocytogenes; 1.00% (wt. %)) was 1.55. The “Log Reduction” value (Salmonella abony; 0.20% (wt. %)) was 2.17, the “Log Reduction” value (Salmonella abony; 0.60% (wt. %)) was 3.34 and the “Log Reduction” value (Salmonella abony; 1.00% (wt. %)) was 4.34. The “Log Reduction, Average, all microbes” value ([2]; 0.20% (wt. %)) was 2.06, the “Log Reduction, Average, all microbes” value ([2]; 0.60% (wt. %)) was 3.02 and the “Log Reduction, Average, all microbes” value ([2]; 1.00% (wt. %)) was 3.71. The “average Log Reduction (LR) in microbial population across all microbes” value ([2]; 0.60 wt % active) was 4.09 and the “average Log Reduction (LR) in microbial population across all microbes” value ([2]; 1.0 wt % active) was 5.17.
For “benzalkonium chloride (C12-C14) [Sample D]”, the “Log Reduction” value (Candida albicans; 0.10%) was 3.65, the “Log Reduction” value (Candida albicans; 0.25%) was 3.75 and the “Log Reduction” value (Candida albicans; 0.50%) was 4.51. It also gave a log reduction (Candida albicans; 0.10%) of 4.84, a log reduction (Candida albicans; 0.25%) of 5.55 and a log reduction (Candida albicans; 0.50%) of 5.77. For the same molecule, the “Log Reduction” value (Staphylococcus aureus; 0.10%) was 3.59, the “Log Reduction” value (Staphylococcus aureus; 0.25%) was 3.97 and the “Log Reduction” value (Staphylococcus aureus; 0.50%) was 4.19. The log reduction (Staphylococcus aureus; 0.10%) was 5.37, the log reduction (Staphylococcus aureus; 0.25%) was 5.67 and the log reduction (Staphylococcus aureus; 0.50%) was 5.97. The “Log Reduction” value ([1]; 0.10%) was 3.39, the “Log Reduction” value ([1]; 0.25%) was 3.47 and the “Log Reduction” value ([1]; 0.50%) was 3.75. It also gave a log reduction ([1]; 0.10%) of 4.47, a log reduction ([1]; 0.25%) of 4.98 and a log reduction ([1]; 0.50%) of 5.05. The “Log Reduction” value (Escherichia coli; 0.10%) was 2.87, the “Log Reduction” value (Escherichia coli; 0.25%) was 3.17 and the “Log Reduction” value (Escherichia coli; 0.50%) was 3.29. It also gave a log reduction (Escherichia coli; 0.10%) of 4.62, a log reduction (Escherichia coli; 0.25%) of 4.77 and a log reduction (Escherichia coli; 0.50%) of 5.07. The “Log Reduction” value (Listeria monocytogenes; 0.10%) was 3.49, the “Log Reduction” value (Listeria monocytogenes; 0.25%) was 3.77 and the “Log Reduction” value (Listeria monocytogenes; 0.50%) was 3.91. The log reduction (Listeria monocytogenes; 0.10%) was 5.61, the log reduction (Listeria monocytogenes; 0.25%) was 5.97 and the log reduction (Listeria monocytogenes; 0.50%) was 6.02. The “Log Reduction” value (Salmonella abony; 0.10%) was 2.70, the “Log Reduction” value (Salmonella abony; 0.25%) was 2.86 and the “Log Reduction” value (Salmonella abony; 0.50%) was 3.04. The log reduction (Salmonella abony; 0.10%) was 4.14, the log reduction (Salmonella abony; 0.25%) was 4.34 and the log reduction (Salmonella abony; 0.50%) was 4.55. For the same molecule, the “Log Reduction, Average, all microbes” value ([2]; 0.10%) was 3.28, the “Log Reduction, Average, all microbes” value ([2]; 0.25%) was 3.50 and the “Log Reduction, Average, all microbes” value ([2]; 0.50%) was 3.78. The “log reduction, Average, all microbes” value ([2]; 0.10%) was 4.84, the “log reduction, Average, all microbes” value ([2]; 0.25%) was 5.21 and the “log reduction, Average, all microbes” value ([2]; 0.50%) was 5.41.
